Data taken from US20220290196A1, “GENETICALLY ENGINEERED MICROBES AND BIOSYNTHETIC METHODS” (The Regents of the University of California, priority 2019, published 2022).
“And” between values parts separate entries of the source, which are not always exact repeats. Equal entries are not always repeated. Where two headings read alike, the source gives them in different places.

Assays:
[1] = molecular target: T1, Saccharomonospora sp. CNQ-490 Tar14 (flavin-dependent tryptophan halogenase), wild type, SEQ ID NO: 3 (expressed SEQ ID NO: 4); expressed with cleaved His tag SE (Saccharomonospora piscinae, UniProt W5VG40); assay: Kinetic characterization of Tar14-catalyzed chlorination of L-tryptophan; assay type: biochemical; settings: Tar14, L-Trp chlorination, 30° C., pH 7.6
T1 construct: flavin reductase Tar15 and PtdH as helper enzymes
T1 sequence (W5VG40 1-534): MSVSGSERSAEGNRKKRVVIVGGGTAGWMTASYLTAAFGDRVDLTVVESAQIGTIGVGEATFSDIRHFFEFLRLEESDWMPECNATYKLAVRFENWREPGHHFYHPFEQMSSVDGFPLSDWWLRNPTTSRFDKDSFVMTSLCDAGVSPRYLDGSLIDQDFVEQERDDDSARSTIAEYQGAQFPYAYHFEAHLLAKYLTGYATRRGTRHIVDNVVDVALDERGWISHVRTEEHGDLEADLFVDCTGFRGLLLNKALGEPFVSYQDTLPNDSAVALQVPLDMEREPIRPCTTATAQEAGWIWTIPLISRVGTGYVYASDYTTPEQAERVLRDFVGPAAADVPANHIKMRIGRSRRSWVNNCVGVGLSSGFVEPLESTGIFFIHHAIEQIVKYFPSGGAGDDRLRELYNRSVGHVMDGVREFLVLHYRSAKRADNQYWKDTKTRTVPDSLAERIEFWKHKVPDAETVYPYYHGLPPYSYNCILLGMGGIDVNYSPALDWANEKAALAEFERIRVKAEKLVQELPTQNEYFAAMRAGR
Description: (§1) To determine kinetic parameters for Tar14-catalyzed chlorination of L-tryptophan, phenol was first tested as an internal standard for quantification of the product (L-6-chlorotryptophan) formation. An HPLC method that gives separation of substrate/product/internal standard peaks (method 4) was developed (FIGS. 10A and 108). It was also verified that activity of Tar14 was not affected by the presence of phenol in the reaction mixture. Using commercial standard of L-6-chlorotryptophan and phenol mixed at known concentrations, a calibration curve was built (FIGS. 10A and 10B).
(§2) Tar14 reaction mixture of total volume 100 μL in 1.5 mL Eppendorf tube was composed of the following components:
(§3) Buffer (10 mM Tris, 10% glycerol, pH 7.6) up to 100 μL
(§4) Tar14 (added last): 2.5 μM
(§5) The reactions were incubated at 30° C. for 5, 10, 25, 45, 60, 120, and 240 min, after which the assays were quenched by addition of equal volume of HPLC grade methanol and frozen at −70° C. till further analysis by HPLC. All assays were performed in triplicates for each substrate concentration and every time point. In parallel, for each time point and substrate concentration, assays with no added phenol and with no added enzyme were used as controls.
(§6) Product formation was quantitated by calculating the ratio of peak areas of product to internal standard and fitting that value to a calibration curve. […]

[2] = system: Streptomyces violaceusniger SPC6 Th-Hal (C6 tryptophan halogenase), SEQ ID NO: 38; settings: cited from earlier work
[3] = system: Streptomyces toxytricini NRRL 15443 SttH (tryptophan halogenase), SEQ ID NO: 39; settings: cited from earlier work
[4] = system: Lechevalieria aerocolonigenes ATCC 39243 RebH (tryptophan halogenase), SEQ ID NO: 44; settings: cited from earlier work
[5] = system: Streptomyces rugosporus LL-42D005 PyrH (C5 tryptophan halogenase), SEQ ID NO: 36; settings: cited from earlier work
[6] = system: Pseudomonas fluorescens PrnA (tryptophan halogenase), SEQ ID NO: 43; settings: cited from earlier work
[7] = system: Kutzneria sp. 744 KtzR (tryptophan halogenase), SEQ ID NO: 40; settings: cited from earlier work
[8] = Deformylation of N-formyl-L-4-Cl-Kyn on purification/lyophilization; assay type: physicochemical; settings: mildly acidic purification conditions / after lyophilization
Description: N-formyl-L-4-Cl-kynurenine (10): The Tar13 biochemical assay was scaled to 57.6 mL (six 96 well plates with 100 μL reaction mixture as described in section 8 in each well). After overnight incubation, the assays were pooled together, frozen on dry ice, and lyophilized. The dried sample was redissolved in a 4000 μL of water/methanol (1/1) mixture and subjected to purification by preparative HPLC using method 8. Organic solvent from combined fractions (checked by direct injection into the Bruker Ion Trap mass spectrometer) was removed by evaporation at reduced pressure and the aqueous sample was frozen following by lyophilization. Due to the presence of closely eluting impurities, further purification step using semi-preparative HPLC and method 6 was used. The target peak was collected manually. After removing organic solvent under reduced pressure and lyophilization, the desired product 10 (1.8 mg) was obtained.

Tar14 = Tar14 in vitro halogenation assay with substrate analogues; assay type: biochemical, Saccharomonospora sp. CNQ-490
Description: Tar14. Tar14 reaction mixture of total volume 100 μL in 1.5 mL Eppendorf tube was composed of the following components:
Buffer (10 mM Tris, 10% glycerol, pH 7.6): up to 100 μL

Tar13 = Tar13 in vitro assay with substrate analogues; assay type: biochemical, Saccharomonospora sp. CNQ-490
Description: Tar13. Upon testing different reaction compositions (buffers, concentration of ascorbic acids and hemin, pH), the following conditions were found as optimal:
Buffer: up to 50 μL (50 mM Tris, 500 mM NaCl 10% glycerol, pH 8.0)
(§7) In a separate Eppendorf tube premix:
Add substrate solution to the enzyme mixture to start reaction
When Tar13 was directly added to the enzyme reaction, immediate protein precipitation occurred. The same was observed if the enzyme was not pre-mixed with hemin and ascorbic acid. Full substrate conversion was achieved after overnight incubation at 30° C. in 1.5 mL Eppendorf tube with shaking. The reactions were quenched by addition of equal volume of HPLC grade methanol.

Tar16 = assay: Coupled Tar13/Tar16 assay (Tar16 substrate generated in situ by Tar13); assay type: biochemical, Saccharomonospora sp. CNQ-490; settings: substrates generated in situ by Tar13; Tar16 10 μM; overnight at 30° C.
Description: Coupled Tar13 Tar]6. The reaction mixture of total volume 100 μL in 1.5 mL Eppendorf tube was composed of the following components:
Buffer: up to 50 μL (50 mM Tris, 500 mM NaCl 10% glycerol, pH 8.0
Substrate (for Tar13 enzyme): 0.25 μM
as §7
Buffer: up to […] (50 mM Tris, 500 mM NaCl 10% glycerol, pH 8.0)
Add substrate solution to the enzyme mixture to start reaction.
No difference in conversion was observed when Tar16 was added into the assay mixture either together with Tar13, or after 2 h of incubation at 30° C., or after overnight incubation at 30° C., followed by another 4 h of incubation after addition of Tar16. Therefore, for convenience, all components were mixed at the same time point, the reactions were incubated at 30° C. overnight, after which the assays were quenched by addition of equal volume of HPLC grade methanol.

[9] = system: S. coelicolor M1146-tarM1Δtar14; assay: Feeding/chemical complementation experiment, incorporation into taromycin; assay type: cell-based, Streptomyces coelicolor; settings: incorporation at residue-1 and residue-13; analogue fed at 2 mM; judged by comparison to taromycin yields by S. coelicolor M1146-tarM1
Description: For taromycin production, seed culture in TSBY medium was inoculated with corresponding S. coelicolor spore suspension (collected from fresh SFM plates) and was cultured for 36-48 h till a dense creamy consistency was reached. Kanamycin at 10 μg mL^−1 final concentration was added to the seed cultures of S. coelicolor M1146-pCAP01-tarM1 and S. coelicolor M1146-pCAP01-tarM1Δtar14. Inocula of seed culture (5%, v/v) were used for fermentation in MP medium (1% glucose, 1% soluble starch, 0.4% peptone, 0.3% yeast extract, 0.3% soytone, 0.2% meat extract, 0.2% CaCO3, and 0.5% NaCl, pH 7.2). Fermentation was carried out at 30° C. and 220 rpm in a rotary incubator for 6 days. A maximum of 40 mL of production medium was added into 250 mL flask with metal springs.
S. coelicolor M1146-pCAP01-tarM1Δtar14 cultures were grown as described in Section 3 for taromycin production. After 18 and 36 h of cultivation, tryptophan analogues in the form of water suspension were added to the production cultures to a final concentration 2 mM. The cultures were further incubated for 5 days before extraction and further analysis by LC-HRMS^n. All experiments were repeated independently twice with three replicates for each compound. In parallel, cultures of S. coelicolor M1146-pCAP01-tarM1 and S. coelicolor M1146-pCAP01-tarM1Δtar14 were grown as controls.
To analyze production of taromycins and analogues, solid phase extraction of the culture supernatants was performed with Amberlite XAD-16 resin (SIGMA). For analytical purposes around 1 g of washed and equilibrated resin was added to 20 mL of supernatant followed by shaking for 30-60 min. Samples were then spun down and decanted. The resin was washed twice with water (15 mL), before elution with methanol (5 mL). The methanol extracts from the resin were used for LCMS analysis without additional concentration step.

Tar13 Tar14 Tar16 = assay: One-pot Tar13/Tar14/Tar16 conversion of L-Trp to L-4-Cl-Kyn; assay type: biochemical, Saccharomonospora sp. CNQ-490
Description: Buffer: up to 100 μL (50 mM Tris, 500 mM NaCl (or KBr) 10% glycerol, pH 8.0)
as §4
Incubate 45 min at 30° C., followed by addition of premixed:
Buffer: up to 50 μL (50 mM Tris, 500 mM NaCl (or KBr) 10% glycerol, pH 8.0)
The reactions were incubated at 30° C. overnight, after which the assays were quenched by addition of equal volume of HPLC grade methanol and frozen at −70° C. till further analysis by LCMS.

[10] = substrate: N[C@@H](Cc1c[nH]c2ccccc12)C(=O)O; assay: Kinetic characterization of Tar14-catalyzed chlorination of L-tryptophan; assay type: biochemical, Saccharomonospora sp. CNQ-490; settings: other: Tar14, L-Trp chlorination, 30° C., pH 7.6
Description: as §1, §2, §3, §4, §5, §6

## N[C@@H](Cc1c[nH]c2ccccc12)C(=O)O [L-Trp, L-tryptophan]
[1]
  kcat: 0.0067 s⁻¹ and 0.007 ± 0.00083 s⁻¹
[2]; 30° C.
  Km: 12.2 ± 1.8 µM
  kcat: 0.0717 ± 0.0083 s⁻¹
[2]; 45° C.
  Km: 20.4 ± 1.3 µM
  kcat: 0.085 ± 0.0067 s⁻¹
[3]
  Km: 25.3 ± 3.2 µM
  kcat: 0.0283 ± 0.0017 s⁻¹
[4]
  Km: 28.7 ± 1.3 µM
  kcat: 0.01 ± 0.0017 s⁻¹
[5]
  Km: 15.2 ± 4.2 µM
  kcat: 0.04 ± 0.0067 s⁻¹
[6]
  Km: 20.7 ± 0.1 µM
  kcat: 0.0183 ± 0.0017 s⁻¹
[7]
  Km: 34.1 ± 2.1 µM
  kcat: 0.0067 ± 0.0017 s⁻¹

## N[C@@H](CC(=O)c1ccc(Cl)cc1NC=O)C(=O)O [Compound 10, N-formyl-L-4-Cl-kynurenine]
[8]
  Stability: deformylation to L-4-Cl-Kyn (1): partial deformylation

## N[C@@H](Cc1c[nH]c2ccccc12)C(=O)O [Compound 4, L-tryptophan]
Tar14; KBr 100 mM, substrate 0.25 mM, Tar14 5 μM, 30° C., 4 h
  Enzyme assays, % conversion, Tar14, Br^−: 100%
Tar14; NaCl 100 mM, substrate 0.25 mM, Tar14 5 μM, 30° C., 4 h
  Enzyme assays, % conversion, Tar14, Cl^−: 100%
Tar14; incubated with iodide
  Iodination by Tar14: No iodinated tryptophan products were detected
Tar13
  Conversion/activity as substrate for Tar13: only trace activity
Tar13; substrate 0.25 mM, Tar13 20 μM, overnight at 30° C.
  Enzyme assays, % conversion, Tar13: 15%
Tar16
  Enzyme assays, % conversion, Tar16: 100%
[9]
  Feeding, % incorporation, A1 + A13 domain: <5%
Tar13 Tar14 Tar16
  Production of L-4-Cl-Kyn from L-Trp in one-pot reaction: below 1%

B1: Saccharomonospora sp. CNQ-490 Tar14 (flavin-dependent tryptophan halogenase), wild type, SEQ ID NO: 3 (expressed SEQ ID NO: 4; expressed with cleaved His tag … (protein)
chain: MSVSGSERSAEGNRKKRVVIVGGGTAGWMTASYLTAAFGDRVDLTVVESAQIGTIGVGEATFSDIRHFFEFLRLEESDWMPECNATYKLAVRFENWREPGHHFYHPFEQMSSVDGFPLSDWWLRNPTTSRFDKDSFVMTSLCDAGVSPRYLDGSLIDQDFVEQERDDDSARSTIAEYQGAQFPYAYHFEAHLLAKYLTGYATRRGTRHIVDNVVDVALDERGWISHVRTEEHGDLEADLFVDCTGFRGLLLNKALGEPFVSYQDTLPNDSAVALQVPLDMEREPIRPCTTATAQEAGWIWTIPLISRVGTGYVYASDYTTPEQAERVLRDFVGPAAADVPANHIKMRIGRSRRSWVNNCVGVGLSSGFVEPLESTGIFFIHHAIEQIVKYFPSGGAGDDRLRELYNRSVGHVMDGVREFLVLHYRSAKRADNQYWKDTKTRTVPDSLAERIEFWKHKVPDAETVYPYYHGLPPYSYNCILLGMGGIDVNYSPALDWANEKAALAEFERIRVKAEKLVQELPTQNEYFAAMRAGR
notes: flavin reductase Tar15 and PtdH as helper enzymes
[10]
  Km: 12.0 ± 1.9 µM
